Tested on: Pyricularia grisea
Test: Antifungal activity against Magnaporthe grisea infected rice plant assessed as logarithm of fungal control value at 100 ppm after 5 days
Format: functional

Structure (SMILES)	Activity
Cn1c(CC(=O)Nc2ccc(Cl)cc2)cs/c1=N\c1ccc(Oc2ccccc2)cc1	1.92
COc1ccc(NC(=O)Cc2cs/c(=N\c3ccc(C(F)(F)F)cc3)n2C)cc1	1.99
CCOc1ccc(NC(=O)Cc2cs/c(=N\c3ccc(F)c(Cl)c3)n2C)cc1	1.94
COc1ccc(NC(=O)Cc2cs/c(=N\c3cccc([N+](=O)[O-])c3)n2C)cc1	1.99
CCc1ccc(NC(=O)Cc2cs/c(=N\c3ccc(Br)cc3C)n2C)cc1	1.98
Cc1ccc(NC(=O)Cc2cs/c(=N\c3ccccc3F)n2C)cc1	1.94
CCCCc1ccc(NC(=O)Cc2cs/c(=N\c3cccc(F)c3)n2C)cc1	1
Cn1c(CC(=O)Nc2ccc(OC(F)(F)F)cc2)cs/c1=N\c1cccc(Br)c1	1.7
CCc1ccc(NC(=O)Cc2cs/c(=N\c3cccc(Cl)c3C)n2C)cc1	1.95
CCc1ccc(NC(=O)Cc2cs/c(=N\c3ccc(F)cc3Cl)n2C)cc1	1.98
CCc1ccc(NC(=O)Cc2cs/c(=N\c3ccc(Br)cc3F)n2C)cc1	2
CCc1ccc(NC(=O)Cc2cs/c(=N\c3ccc(C)cc3Br)n2C)cc1	1.94
CCOc1ccc(NC(=O)Cc2cs/c(=N\c3ccc(F)cc3F)n2C)cc1	1.9
COc1ccc(NC(=O)Cc2cs/c(=N\c3ccc(C)cc3C)n2C)cc1	1.96
COc1ccc(NC(=O)Cc2cs/c(=N\c3ccccc3Br)n2C)cc1	1.92
COc1ccc(NC(=O)Cc2cs/c(=N\c3ccccc3C(C)C)n2C)cc1	1.9
COc1ccc(NC(=O)Cc2cs/c(=N\c3ccc(Cl)cc3F)n2C)cc1	1.97
COc1ccc(NC(=O)Cc2cs/c(=N\c3ccc(F)cc3F)n2C)cc1	1.97
Cn1c(CC(=O)Nc2ccc([N+](=O)[O-])cc2)cs/c1=N\c1ccc(F)cc1F	1.23
Cn1c(CC(=O)Nc2ccc(Oc3ccccc3)cc2)cs/c1=N\c1ccc(F)cc1F	1.23

Structure (SMILES)	Activity
COc1ccccc1/N=c1\scc(CC(=O)Nc2ccc(OC(F)(F)F)cc2)n1C	0.7
Cc1ccc(/N=c2\scc(CC(=O)Nc3ccc(OC(F)(F)F)cc3)n2C)c(C)c1	1.23
Cn1c(CC(=O)Nc2ccc(C#N)cc2)cs/c1=N\c1ccc(F)cc1F	1.23
CCc1ccc(NC(=O)Cc2cs/c(=N\c3ccccc3F)n2C)cc1	1.99
Cn1c(CC(=O)Nc2ccc(C(F)F)cc2)cs/c1=N\c1ccc(Br)cc1	1.4
Cc1ccc(NC(=O)Cc2cs/c(=N/c3ccc(F)cc3)n2C)cc1	1.96
CCc1ccc(NC(=O)Cc2cs/c(=N\c3ccc(Cl)cc3Cl)n2C)cc1	1.96
CCc1ccc(NC(=O)Cc2cs/c(=N\c3ccc(OC)cc3C)n2C)cc1	2
Cc1ccc(NC(=O)Cc2cs/c(=N\c3ccc(F)cc3F)n2C)cc1	1.99
Cn1c(CC(=O)Nc2ccc(Cl)cc2)cs/c1=N\c1ccc(OC(F)(F)F)cc1	1.82
CCc1ccc(NC(=O)Cc2cs/c(=N\c3ccc(Cl)cc3F)n2C)cc1	1.99
COc1ccc(NC(=O)Cc2cs/c(=N\c3ccccc3F)n2C)cc1	1.99
Cn1c(CC(=O)Nc2ccc([N+](=O)[O-])cc2)cs/c1=N\c1cccc(F)c1	1.23
CCc1ccc(NC(=O)Cc2cs/c(=N\c3ccc([N+](=O)[O-])cc3OC)n2C)cc1	1.81
CCc1ccc(/N=c2\scc(CC(=O)Nc3ccc(OC)cc3)n2C)cc1	1.98
CCc1ccc(NC(=O)Cc2cs/c(=N\c3ccc(Br)cc3)n2C)cc1	1.98
COc1ccc(NC(=O)Cc2cs/c(=N\c3ccccc3Cl)n2C)cc1	1.98
CCc1ccc(NC(=O)Cc2cs/c(=N\c3ccc(C)cc3Cl)n2C)cc1	2
Cn1c(CC(=O)Nc2ccc(OC(F)(F)F)cc2)cs/c1=N\c1ccc(F)cc1	0.9
COc1ccc(NC(=O)Cc2cs/c(=N\c3cccc(F)c3)n2C)cc1	1.97

From ChEMBL document CHEMBL1142346, “Quantitative structural-activity relationship (QSAR) study for fungicidal activities of thiazoline derivatives against rice blast” (2008)
